Experimental findings from US20240199546A1, “INHIBITORS OF SOLUTE CARRIER FAMILY 6A MEMBER 19 (SLC6A19) AND METHODS OF USE THEREOF” (Maze Therapeutics, Inc., priority 2022, published 2024) are described below.

Molecules are shown by their SMILES.

The target in this test is T1, human SLC6A19 and TMEM27 (Homo sapiens, UniProt Q695T7).
T1 construct: expressed in transfected cells
T1 sequence (Q695T7 1-634): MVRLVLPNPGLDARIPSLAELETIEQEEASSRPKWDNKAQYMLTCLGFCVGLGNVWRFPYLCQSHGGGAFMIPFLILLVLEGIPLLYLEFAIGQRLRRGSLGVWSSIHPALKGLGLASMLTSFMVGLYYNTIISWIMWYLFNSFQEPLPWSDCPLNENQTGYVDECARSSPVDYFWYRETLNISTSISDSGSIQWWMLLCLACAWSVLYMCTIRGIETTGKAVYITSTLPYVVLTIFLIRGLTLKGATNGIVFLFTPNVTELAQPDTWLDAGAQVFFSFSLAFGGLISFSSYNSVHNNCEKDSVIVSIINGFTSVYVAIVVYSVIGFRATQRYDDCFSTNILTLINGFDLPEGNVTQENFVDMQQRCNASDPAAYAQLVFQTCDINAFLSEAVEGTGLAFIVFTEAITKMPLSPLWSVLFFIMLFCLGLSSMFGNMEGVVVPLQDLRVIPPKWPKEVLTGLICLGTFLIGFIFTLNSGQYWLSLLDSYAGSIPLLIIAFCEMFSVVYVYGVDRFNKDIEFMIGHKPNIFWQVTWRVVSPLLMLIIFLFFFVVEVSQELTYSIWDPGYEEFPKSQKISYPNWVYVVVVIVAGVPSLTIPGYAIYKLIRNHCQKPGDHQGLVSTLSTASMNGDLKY
T1 sequence (Q9HBJ8 15-222 partner): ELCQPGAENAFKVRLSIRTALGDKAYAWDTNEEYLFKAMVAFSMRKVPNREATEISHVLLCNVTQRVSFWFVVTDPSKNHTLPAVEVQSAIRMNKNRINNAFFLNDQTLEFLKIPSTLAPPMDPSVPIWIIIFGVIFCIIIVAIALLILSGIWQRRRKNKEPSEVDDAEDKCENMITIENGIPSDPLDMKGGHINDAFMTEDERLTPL
Kind of test: Radiolabelled (3H) leucine uptake in CHO cells with doxycycline-inducible expression of human SLC6A19 and TMEM27 (Example B-1). To be noted: CHO cells with doxycycline-inducible expression of human SLC6A19 and TMEM27, read-out: SLC6A19_Radioligand Uptake Assay IC50. It is filed as cell-based. Summed up: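 CHO cells were induced with doxycycline for 18 h at 37 °C, washed in HBSS, then exposed to compounds for 1 h: 8-point, 3-fold dilutions in duplicate, 0.5% DMSO final. Uptake measured by scintillation counting after 2 h shaking. Activity normalized with positive control as 0% and DMSO as 100%.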
With `CC(NC(=O)C1(C)CC1)c1cc2cc(Cl)c(OCc3cscn3)cc2[nH]1` (racemic) [Compound 347, (S)-N-(1-(5-chloro-6-(thiazol-4-ylmethoxy)-1H-indol-2-yl)ethyl)-1-methylcyclopropane-1-carboxamide and (R)-N-(1-(5-chloro-6-(thiazol-4-ylmethoxy)-1H-indol-2-yl)ethyl)-1-methylcyclopropane-1-carboxamide], the IC50 was determined as 1.05 µM.
As to `Cc1cc(COc2cc3[nH]c(CNC(=O)C45COCC4C5)cc3cc2Cl)on1` (centres unmarked) [Compound 300, N-((5-chloro-6-((3-methylisoxazol-5-yl)methoxy)-1H-indol-2-yl)methyl)-3-oxabicyclo[3.1.0]hexane-1-carboxamide], the IC50 was 0.321 µM.
The value for `CC1(C(=O)NCc2cc3cc(Cl)c(OCCc4ccon4)cc3[nH]2)CC1` [Compound 103, N-((5-chloro-6-(2-(isoxazol-3-yl)ethoxy)-1H-indol-2-yl)methyl)-1-methylcyclopropane-1-carboxamide] was 0.114 µM; that for `Cc1ccc(COc2cc3[nH]c(CNC(=O)C4(C)CC4)cc3cc2Cl)nc1` [Compound 21, N-((5-chloro-6-((5-methylpyridin-2-yl)methoxy)-1H-indol-2-yl)methyl)-1-methylcyclopropane-1-carboxamide] was 0.532 µM; that for `Cc1cc(COc2cc3[nH]c(CNC(=O)[C@@H](C)O)cc3cc2Cl)on1` [Compound 256, (R)-N-((5-chloro-6-((3-methylisoxazol-5-yl)methoxy)-1H-indol-2-yl)methyl)-2-hydroxypropanamide] was 0.14 µM.
Take `Cc1cc(COc2cc3[nH]c(CNC(=O)COC(F)F)cc3cc2Cl)on1` [Compound 294, N-((5-chloro-6-((3-methylisoxazol-5-yl)methoxy)-1H-indol-2-yl)methyl)-2-(difluoromethoxy)acetamide]: the IC50 amounted to 0.135 µM.
Consider `O=C(NCc1cc2cc(OC(F)(F)F)c(OCc3cocn3)cc2[nH]1)N1CCCC1` [Compound 417, N-((6-(oxazol-4-ylmethoxy)-5-(trifluoromethoxy)-1H-indol-2-yl)methyl)pyrrolidine-1-carboxamide], for which the IC50 is 0.394 µM.
With `Cc1cc(COc2cc3[nH]c(CNC(=O)C45COC(C4)C5)cc3cc2Cl)on1` [Compound 298, N-((5-chloro-6-((3-methylisoxazol-5-yl)methoxy)-1H-indol-2-yl)methyl)-2-oxabicyclo[2.1.1]hexane-4-carboxamide] the figure was 0.921 µM; with `Cc1cc(COc2cc3[nH]c(CNC(=O)C4(CO)CCCO4)cc3cc2Cl)on1` (centres unmarked) [Compound 295, N-((5-chloro-6-((3-methylisoxazol-5-yl)methoxy)-1H-indol-2-yl)methyl)-2-(hydroxymethyl)tetrahydrofuran-2-carboxamide], 1.61 µM.
With `CC(=O)NCc1cc2cc(Cl)c(OC[C@H]3CCOC3)cc2[nH]1` [Compound 464, (S)-N-((5-chloro-6-((tetrahydrofuran-3-yl)methoxy)-1H-indol-2-yl)methyl)acetamide] the figure was 1.35 µM; with `O=C(CC(F)(F)F)NCc1cc2cc(F)c(OCc3cscn3)cc2[nH]1` [Compound 568, 3,3,3-trifluoro-N-((5-fluoro-6-(thiazol-4-ylmethoxy)-1H-indol-2-yl)methyl)propanamide], 0.337 µM.
As to `CC1(C(=O)NCc2cc3ccc(OCc4ccon4)c(F)c3[nH]2)CC1` [Compound 201, N-((7-fluoro-6-(isoxazol-3-ylmethoxy)-1H-indol-2-yl)methyl)-1-methylcyclopropane-1-carboxamide], the IC50 was 5.07 µM.
`C[C@H]1CCN1C(=O)NCc1cc2cc(Cl)c(OCc3ccon3)cc2[nH]1` [Compound 362, (S)-N-((5-chloro-6-(isoxazol-3-ylmethoxy)-1H-indol-2-yl)methyl)-2-methylazetidine-1-carboxamide]: the IC50 worked out at 0.983 µM.
Take `O=C(NCc1cc2cc(C(F)(F)F)c(OCc3ccon3)cc2[nH]1)N1CCCC1` [Compound 476, N-((6-(isoxazol-3-ylmethoxy)-5-(trifluoromethyl)-1H-indol-2-yl)methyl)pyrrolidine-1-carboxamide]: the IC50 came to 0.408 µM.
Turning to `CC1(C(=O)NCc2cc3cc(Cl)c(OCC4COCCO4)cc3[nH]2)CC1` (racemic) [Compound 396, (S)-N-((6-((1,4-dioxan-2-yl)methoxy)-5-chloro-1H-indol-2-yl)methyl)-1-methylcyclopropane-1-carboxamide and (R)-N-((6-((1,4-dioxan-2-yl)methoxy)-5-chloro-1H-indol-2-yl)methyl)-1-methylcyclopropane-1-carboxamide], the IC50 is 0.644 µM.
The value for `O=C(NCc1cc2cc(OC(F)(F)F)c(CCc3ccon3)cc2[nH]1)N1CCCC1` [Compound 598, N-((6-(2-(isoxazol-3-yl)ethyl)-5-(trifluoromethoxy)-1H-indol-2-yl)methyl)pyrrolidine-1-carboxamide] was 0.358 µM; that for `Cc1cc(COc2cc3[nH]c(CNC(=O)N4CCCC4)cc3cc2F)no1` [Compound 117, N-((5-fluoro-6-((5-methylisoxazol-3-yl)methoxy)-1H-indol-2-yl)methyl)pyrrolidine-1-carboxamide] was 0.267 µM; that for `O=C(NCc1cc2ccc(OCc3ccon3)cc2[nH]1)N1CCC(F)C1` (centres unmarked) [Compound 200, 3-fluoro-N-((6-(isoxazol-3-ylmethoxy)-1H-indol-2-yl)methyl)pyrrolidine-1-carboxamide] was 0.752 µM.
With `Cc1cc(COc2cc3[nH]c(CNC(=O)C4(F)CC4)cc3cc2Cl)on1` [Compound 571, N-((5-chloro-6-((3-methylisoxazol-5-yl)methoxy)-1H-indol-2-yl)methyl)-1-fluorocyclopropane-1-carboxamide], the IC50 came out at 0.161 µM.
Turning to `CC(F)C(=O)NCc1cc2cc(Cl)c(OCc3cscn3)cc2[nH]1` (single isomer, unassigned) [Compound 444, (R or S)-N-((5-chloro-6-(thiazol-4-ylmethoxy)-1H-indol-2-yl)methyl)-2-fluoropropanamide], the half-inhibitory concentration (IC50) turned out to be 0.0774 µM.
With `CC(C)c1cc2cc(CNC(=O)C3(C)CC3)[nH]c2cc1OCc1cscn1` [Compound 186, N-((5-isopropyl-6-(thiazol-4-ylmethoxy)-1H-indol-2-yl)methyl)-1-methylcyclopropane-1-carboxamide] the figure was 0.968 µM; with `CC1CCCN1C(=O)NCc1cc2cc(Cl)c(OCc3ccon3)cc2[nH]1` (centres unmarked) [Compound 86, N-((5-chloro-6-(isoxazol-3-ylmethoxy)-1H-indol-2-yl)methyl)-2-methylpyrrolidine-1-carboxamide], 0.49 µM.
With `O=C(CC(F)(F)F)NCc1cc2cc(Cl)c(OCc3cscn3)cc2[nH]1` [Compound 554, N-((5-chloro-6-(thiazol-4-ylmethoxy)-1H-indol-2-yl)methyl)-3,3,3-trifluoropropanamide] the figure was 0.214 µM.
The value for `Cc1nc(COc2cc3[nH]c(CNC(=O)C4(C)CC4)cc3cc2Cl)no1` [Compound 318, N-((5-chloro-6-((5-methyl-1,2,4-oxadiazol-3-yl)methoxy)-1H-indol-2-yl)methyl)-1-methylcyclopropane-1-carboxamide] was 0.226 µM; that for `CN(C(=O)NCc1cc2cc(Cl)c(OCc3cscn3)cc2[nH]1)C1CC1` [Compound 359, 3-((5-chloro-6-(thiazol-4-ylmethoxy)-1H-indol-2-yl)methyl)-1-cyclopropyl-1-methylurea] was 0.231 µM.
For the compound `Cc1cc(COc2cc3[nH]c(CNC(=O)C4(C#N)CC4)cc3cc2Cl)on1` [Compound 484, N-((5-chloro-6-((3-methylisoxazol-5-yl)methoxy)-1H-indol-2-yl)methyl)-1-cyanocyclopropane-1-carboxamide], the IC50 came to 0.199 µM.
With `Cc1cc(COc2cc3[nH]c(CNC(=O)C(C)F)cc3cc2Cl)on1` (racemic) [Compound 442, (S)-N-((5-chloro-6-((3-methylisoxazol-5-yl)methoxy)-1H-indol-2-yl)methyl)-2-fluoropropanamide and (R)-N-((5-chloro-6-((3-methylisoxazol-5-yl)methoxy)-1H-indol-2-yl)methyl)-2-fluoropropanamide] the figure was 0.0752 µM; with `O=C(NCc1cc2cc(OC(F)(F)F)c(CCc3cocn3)cc2[nH]1)N1CCCC1` [Compound 468, N-((6-(2-(oxazol-4-yl)ethyl)-5-(trifluoromethoxy)-1H-indol-2-yl)methyl)pyrrolidine-1-carboxamide], 0.422 µM.
The value for `COCC(=O)NCc1cc2cc(F)c(OCc3cc(C)no3)cc2[nH]1` [Compound 263, N-((5-fluoro-6-((3-methylisoxazol-5-yl)methoxy)-1H-indol-2-yl)methyl)-2-methoxyacetamide] was 0.174 µM.

By IC50 is commonly meant the concentration at which inhibition is half-maximal.
